The record followed here is patent US20220387366A1, “Compositions for Regulating Homeostasis of Cortisol and Improving Sleep Quality and Methods of Use and Production Thereof” (Unigen, Inc., priority 2021, published 2022).

Marks after values point to notes of the source that are not given here.

One assay deals with T1, MT2 receptor (Homo sapiens, UniProt P49286).
T1 construct: expressed in transfected cells; host or cells: CHO-K1 cells (membranes)
T1 sequence (P49286 1-362): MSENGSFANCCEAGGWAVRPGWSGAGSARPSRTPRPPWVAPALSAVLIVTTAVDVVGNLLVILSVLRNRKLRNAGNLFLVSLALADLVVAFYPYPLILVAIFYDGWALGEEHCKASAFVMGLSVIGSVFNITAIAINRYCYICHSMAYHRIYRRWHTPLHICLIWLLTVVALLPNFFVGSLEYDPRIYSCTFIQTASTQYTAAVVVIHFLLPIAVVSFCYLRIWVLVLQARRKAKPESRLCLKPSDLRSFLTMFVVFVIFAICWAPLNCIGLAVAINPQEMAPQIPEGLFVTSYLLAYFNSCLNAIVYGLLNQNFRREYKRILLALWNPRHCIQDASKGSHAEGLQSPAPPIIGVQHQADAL
Put plainly: Melatonin receptor MT2 binding assay, displacement of [125I]2-Iodomelatonin. The note with it: for inhibition at 0.015625 µg/mL: 0.015625 μg/mL; for inhibition at 0.03125 µg/mL: 0.03125 μg/mL; for inhibition at 0.0625 µg/mL: 0.0625 μg/mL; for inhibition at 0.125 µg/mL: 0.125 μg/mL; for inhibition at 0.25 µg/mL: 0.25 μg/mL; for inhibition at 1 µg/mL: 1 μg/mL; for inhibition at 2 µg/mL: 2 μg/mL; for inhibition at 4 µg/mL: 4 μg/mL; for inhibition at 8 µg/mL: 8 μg/mL; for inhibition against MT2 receptor: concentration range from 8 ug/mL to 0.015625 μg/mL. (Loss of bound radioactivity is the signal in a displacement assay; it reports binding, not function.)

The target of another assay is T2, MT1 receptor (Homo sapiens, UniProt P48039).
T2 construct: expressed in transfected cells; host or cells: CHO-K1 cells (membranes)
Description: Melatonin receptor MT1 binding assay, displacement of [125I]2-Iodomelatonin. The note with it: for inhibition at 0.015625 µg/mL: 0.015625 μg/mL; for inhibition at 0.03125 µg/mL: 0.03125 μg/mL; for inhibition at 0.0625 µg/mL: 0.0625 μg/mL; for inhibition at 0.125 µg/mL: 0.125 μg/mL; for inhibition at 0.25 µg/mL: 0.25 μg/mL; for inhibition at 0.5 µg/mL: 0.5 μg/mL; for inhibition at 1 µg/mL: 1 μg/mL; for inhibition at 2 µg/mL: 2 μg/mL; for inhibition at 4 µg/mL: 4 μg/mL; for inhibition at 8 µg/mL: 8 μg/mL; for inhibition against MT1 receptor: concentration range from 8 ug/mL to 0.015625 μg/mL. As to the method: Human recombinant melatonin receptors (MT1 and MT2) were expressed in CHO-K1 cells and resuspended in buffer. The membranes containing recombinant receptors were incubated with test compounds in combination with 0.05 nM [125I]2-lodomelatonin for 180 minutes at 25° C. Membranes were immobilized on filters before being washed and the [125I]2-Iodomelatonin was counted. Test compounds that bound to MT1 or MT2 in the same binding site as melatonin displaced [125I]2-lodomelatonin, reducing the count. […] 0.00021 μM Melatonin was used as a positive control to displace [125I]2-Iodomelatonin (Paul et al., 1999; Beresford et al., 1998).
All samples were dissolved in 1% DMSO.

Assay [1] has as its system Male BALB/C mice. Description: Sleep latency / sleeping incidence with subthreshold pentobarbital sodium (26 mg/kg i.p.) after 32 days of dosing. Format: in vivo. As to conditions: 1 mg/kg. As to the method: Male BALB/C mice (18 g˜22 g) were randomly assigned to groups of vehicle control (sterile water); positive control group, melatonin 1 mg/kg BW (0.1 g/L); low dose group, a composition derived from enriched for one or more phenylpropanoid acids and benzoxazinoids 250 mg/kg BW (25 g/L in sterile water); middle dose group, a composition derived from enriched for one or more phenylpropanoid acids and benzoxazinoids 500 mg/kg BW (50 g/L in sterile water); and high dose group, a composition derived from enriched for one or more phenylpropanoid acids and benzoxazinoids 1000 mg/kg BW (100 g/L in sterile water). Each animal received the respective dose daily for 32 consecutive days. Mice from each group were intraperitoneally injected with 26 mg/kg pentobarbital sodium (0.1 mL/10 g BW), 15 min after the last dose to induce subthreshold hypnosis. The numbers of mice that lose the reflex to turnover to the right side over 1 min after injection of pentobarbital sodium were recorded for 30 min. The incidence of sleeping mice was analyzed to compare the difference between the tested substance groups and vehicle control. Latency of sleep is the number of animals with loss of the righting reflex in duration of time elapsed after pentobarbital administrations. […] As a result, the subthreshold dose of pentobarbital was given to each mouse 15 min after the last dose of test materials to assess the effect of materials on sleep latency. Thirty minutes post pentobarbital injection, the number of mice with no reflex to turn over to the right side over the duration of 1 min was recorded. Data were reported as incidence of sleeping. […] These incidences were statistically significant for both the high dose of UP165 and melatonin compared to the vehicle control animals. In comparison, the incidence in the vehicle-treated group was only 20%. Positive trends (60% of mice both in the 250 and 500 mg/kg group) were also observed for the low and mid doses of UP165.

The subject of assay [2] is Male BALB/C mice. Description: Acute effect on sleep following a single oral administration. Format: in vivo. As to conditions: single oral 1 mg/kg. As to the method:
Male BALB/C mice (18 g˜22 g) were randomly assigned to groups of vehicle control (sterile water); positive control group, melatonin 1 mg/kg BW (0.1 g/L); low dose group, a composition derived from enriched for one or more phenylpropanoid acids and benzoxazinoids 250 mg/kg BW (25 g/L in sterile water); middle dose group, a composition derived from enriched for one or more phenylpropanoid acids and benzoxazinoids 500 mg/kg BW (50 g/L in sterile water); and high dose group, a composition derived from enriched for one or more phenylpropanoid acids and benzoxazinoids 1000 mg/kgBW (100 g/L in sterile water). Mice were administered the respective treatment group and observed for 60 min monitor the direct impact of test compounds on sleep following a single oral administration. When naive mice are placed into a supine position, they instantaneously turn to the upright position. However, mice under the hypnotic dose of pentobarbital remain on the supine position for measurable amount of time. Sleeping was indexed as the disappearance of reflex to turnover to the right side, and mouse was considered asleep when the time to turn over to the side was over 30 s after mouse was treated with a composition derived from enriched for one or more phenylpropanoid acids and benzoxazinoids. In the current study, none of the treatment groups induce sleep following a single oral administration (Table 15).

The subject of assay [3] is Male BALB/C mice. Description: Sleep time induced by pentobarbital sodium (36 mg/kg i.p.) after 32 days of dosing. It is filed as in vivo. As to the method: Male BALB/C mice (18 g˜22 g) were randomly assigned to groups of vehicle control (sterile water); positive control group, melatonin 1 mg/kg BW (0.1 g/L); low dose group, a composition derived from enriched for one or more phenylpropanoid acids and benzoxazinoids 250 mg/kg BW (25 g/L in sterile water); middle dose group, a composition derived from enriched for one or more phenylpropanoid acids and benzoxazinoids 500 mg/kg BW (50 g/L in sterile water); and high dose group, a composition derived from enriched for one or more phenylpropanoid acids and benzoxazinoids 1000 mg/kg BW (100 g/L in sterile water). Each animal received the respective dose daily for 32 consecutive days. 15 min after the last dose, each group of mice was intraperitoneally injected with 36 mg/kg pentobarbital sodium (in 0.1 mL/10 g). The sleep time of each mouse was recorded and the difference of sleep time between a composition derived from enriched for one or more phenylpropanoid acids and benzoxazinoids-treated groups and vehicle control was determined.

T2 sequence (P48039 whole entry): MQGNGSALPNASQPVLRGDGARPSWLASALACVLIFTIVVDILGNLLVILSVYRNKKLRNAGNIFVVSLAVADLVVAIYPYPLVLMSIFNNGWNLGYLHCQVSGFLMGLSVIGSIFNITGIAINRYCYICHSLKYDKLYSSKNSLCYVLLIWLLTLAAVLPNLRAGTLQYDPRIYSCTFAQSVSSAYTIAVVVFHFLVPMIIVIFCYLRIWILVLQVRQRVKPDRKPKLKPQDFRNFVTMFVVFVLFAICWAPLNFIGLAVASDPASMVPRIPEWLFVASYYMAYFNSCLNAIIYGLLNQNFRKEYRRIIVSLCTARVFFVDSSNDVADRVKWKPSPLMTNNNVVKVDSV

3-methoxy-hydrocoumaric acid: the “MT2 receptor binding (inhibition)” value on MT2 receptor (isolated compounds, 0.5 μg/mL) is listed as 8.9%; at MT2 receptor (isolated compounds, 2.5 μg/mL), 22.9%.
In the case of `COc1ccc2nc(O)oc2c1` [6-MBOA, 6-methoxy-2-benzoxazolol, reference compound], the results for the inhibition at 0.815 µM on MT2 receptor (0.815 μM) and on MT1 receptor (0.815 μM) were -12% and 7%, respectively. Further, the inhibition at 1.63 µM at MT2 receptor (1.63 μM) was -4%; on MT1 receptor (1.63 μM) it was 8%. Besides, the inhibition at 3.26 µM at MT2 receptor (3.26 μM) was 8%. On MT2 receptor (6.52 μM), the inhibition at 6.52 µM stood at 11%. Also, on MT2 receptor (13.04 μM), the inhibition at 13.04 µM came to 15%. Also, on MT2 receptor (at the concentrations tested (0.815 to 13.04 μM)), the “inhibition of 2-lodomelatonin binding to MT2” value was “did not inhibit”. Besides, the inhibition at 0.0032 µM on MT1 receptor (0.0032 μM) worked out at 2%. In addition, the inhibition at 0.0064 µM on MT1 receptor (0.0064 μM) amounted to 3%. Also, the inhibition at 0.013 µM on MT1 receptor (0.013 μM) turned out to be 8%. For the same compound, on MT1 receptor (0.025 μM), the inhibition at 0.025 µM was found to be 11%. Also, the inhibition at 0.051 µM on MT1 receptor (0.051 μM) stood at 5%. Further, the inhibition at 0.102 µM on MT1 receptor (0.102 μM) amounted to 1%. In addition, the inhibition at 0.204 µM on MT1 receptor (0.204 μM) stood at 7%. Also, the inhibition at 0.407 µM at MT1 receptor (0.407 μM) worked out at 6%. Moreover, the “inhibition of 2-lodomelatonin binding to MT1” value on MT1 receptor (at the concentrations tested (3.2 nM to 1.63 μM)) is listed as “did not inhibit”.
As for `COc1cc(/C=C/C(=O)O)ccc1O` [Ferulic acid], the inhibition at 0.5 µg/mL at MT2 receptor (isolated compounds, 0.5 μg/mL) was determined as 2.6%. Further, the inhibition at 2.5 µg/mL at MT2 receptor (isolated compounds, 2.5 μg/mL) turned out to be 1.6%.
For `COc1ccc2c(c1)OC(O)C(=O)N2` (stereo not drawn) [HMBOA, 2-Hydroxy-7-methoxy-2H-1,4-benzoxazin-3(4H)-one] the same measures were 3.9% and 28%.
Regarding `COc1ccc2c(c1)OC(O[C@@H]1O[C@H](CO)[C@@H](O)[C@H](O)[C@H]1O)C(=O)N2` (stereo partly drawn) [MW357, 2-(β-D-Glucopyranosyloxy)-7-methoxy-2H-1,4-benzoxazin-3(4H)-one], at MT2 receptor, the inhibition at 0.015625 µg/mL is 4%, the inhibition at 0.03125 µg/mL amounted to 2%, the inhibition at 0.0625 µg/mL stood at 1% and the inhibition at 0.125 µg/mL was -6%. At MT2 receptor, the inhibition at 0.25 µg/mL is 5%, the inhibition at 1 µg/mL came to 3%, the inhibition at 2 µg/mL turned out to be 10% and the inhibition at 4 µg/mL is 5%. Also, on MT2 receptor, the inhibition at 8 µg/mL is 3% and the “inhibition against MT2 receptor” value is reported as “Neither compound show any inhibition”. Moreover, on MT2 receptor (0.5 μg/mL), the inhibition at 0.5 µg/mL was found to be 4%. Besides, at MT1 receptor, the inhibition at 0.015625 µg/mL is 3%, the inhibition at 0.03125 µg/mL stood at 1%, the inhibition at 0.0625 µg/mL is -4% and the inhibition at 0.125 µg/mL was -1%. On MT1 receptor, the inhibition at 0.25 µg/mL amounted to 0%, the inhibition at 0.5 µg/mL is -5%, the inhibition at 1 µg/mL was -2% and the inhibition at 2 µg/mL was -4%. At MT1 receptor, the inhibition at 4 µg/mL was -5%, the inhibition at 8 µg/mL worked out at 0% and the “inhibition against MT1 receptor” value is listed as “Neither compound show any inhibition”.
Turning to `COc1ccc2c(c1)OC(O[C@@H]1O[C@H](CO)[C@@H](O)[C@H](O)[C@H]1O)C(=O)N2OC` (stereo partly drawn) [MW387, 2-(β-D-Glucopyranosyloxy)-4,7-dimethoxy-2H-1,4-benzoxazin-3(4H)-one], on MT2 receptor, the inhibition at 0.015625 µg/mL is -4%, the inhibition at 0.03125 µg/mL was -6%, the inhibition at 0.0625 µg/mL was -2% and the inhibition at 0.125 µg/mL was -6%. Besides, on MT2 receptor, the inhibition at 0.25 µg/mL was -3%, the inhibition at 1 µg/mL was -2%, the inhibition at 2 µg/mL amounted to 0% and the inhibition at 4 µg/mL amounted to 3%. For the same compound, at MT2 receptor, the inhibition at 8 µg/mL turned out to be 4% and the “inhibition against MT2 receptor” value is given as “Neither compound show any inhibition”. The inhibition at 0.5 µg/mL at MT2 receptor (0.5 μg/mL) turned out to be 7%. At MT1 receptor, the inhibition at 0.015625 µg/mL is 2%, the inhibition at 0.03125 µg/mL was -3%, the inhibition at 0.0625 µg/mL is -6% and the inhibition at 0.125 µg/mL is -2%. On MT1 receptor, the inhibition at 0.25 µg/mL turned out to be 6%, the inhibition at 0.5 µg/mL was 6%, the inhibition at 1 µg/mL worked out at 1% and the inhibition at 2 µg/mL is -1%. In addition, at MT1 receptor, the inhibition at 4 µg/mL was -5%, the inhibition at 8 µg/mL was found to be 3% and the “inhibition against MT1 receptor” value is recorded as “Neither compound show any inhibition”.
As for `COc1ccc2[nH]cc(CCNC(C)=O)c2c1` [Melatonin], the results for the Incidence of sleeping in the assay on Male BALB/C mice [1], in the assay on Male BALB/C mice [1] (listed as melatonin) and in the assay with Male BALB/C mice [2] were 80%*, 80% and 0%, respectively. In addition, the “Sleeping No.” value in the assay on Male BALB/C mice [1] (of 15 mice) worked out at 12; with Male BALB/C mice [2] (of 15 mice) it was 0. Further, the “increase in sleep time compared to vehicle control” value in the assay on Male BALB/C mice [3] (1 mg/kg) turned out to be 12.0 ± 1.3 min. Also, the “Sleep Time” value in the assay with Male BALB/C mice [3] (1 mg/kg daily for 32 days, Mean ± SD) was determined as 42.6 ± 10.7 min.
In the case of `O=C(O)CCc1ccc(O)cc1` [Phloretic acid], the inhibition at 5 µg/mL at MT2 receptor (isolated compounds, 5 μg/mL) amounted to 69%. For the same compound, the inhibition at 25 µg/mL at MT2 receptor (isolated compounds, 25 μg/mL) was 94%.
Take `O=C(O)/C=C/c1ccc(O)cc1` [p-coumaric acid]: at MT2 receptor (isolated compounds, 0.5 μg/mL), the inhibition at 0.5 µg/mL stood at 0.5%. The inhibition at 2.5 µg/mL on MT2 receptor (isolated compounds, 2.5 μg/mL) was 6.7%.

A word on the inhibition: it is the change of the read-out against control, counted positive when it falls.
